Columns and labels:
dopamine D2 receptors [1] = target: T1, dopamine D2 receptors (Homo sapiens (Human), UniProt P14416); test: β-arrestin2 recruitment BRET, dopamine D2 receptor functional activity; assay type: cell-based
Procedure: To examine the downstream f3-arrestin2 signaling pathway mediated by dopamine D2 receptors, 6 cm dish was used for transfection with 500 […] of dopamine D2 receptors fused to seaweed luciferase (D2-Rluc), 500 μg of G protein-coupled receptor kinase 2 (GRK2), 2500 μg of β-arrestin2 fused to green fluorescent protein (GFP2-ARRB2) and 14 μL of transfection reagent PEI. The next day, the overgrown cells were digested and plated a 96-well plate at the amount of cells contained in a 6 cm culture dish with overgrown cells, and 100 μL of culture medium was added to each well. On the third day, the drugs were added for test.
(§1) To examine downstream G-protein signaling pathway mediated by dopamine D2 receptors, on the first day, 6 cm dish was used for transfection with 1μg of dopamine D2 receptors, 1μg of Gαi1 containing C-terminal seaweed luciferase (GGαi1-Rluc), 1 μg of […], 1 μg of Gγ9 containing C-terminal green fluorescent protein (Gγ9-GFP) and 16 μL of PEI. At the same time, in order to examine the downstream f3-arrestin2 signaling pathway mediated by dopamine D2 receptors, on the first day, 6 cm dish was used for transfection with 500 μg of dopamine D2 receptors containing C-terminal seaweed luciferase (D2-Rluc), 500 μg of G protein-coupled receptor kinase 2 (GRK2), 2500 μg of […] containing N-terminal green fluorescent protein (GFP2-ARRB2) and 14 μL of PEI. The next day, the overgrown cells were digested and plated a 96-well plate at the amount of cells contained in a 6 cm culture dish with overgrown cells, and 100 μL of culture medium was added to each well. On the third day, the drugs were added for test. The 96-well plate was taken out from the cell culture room to remove the culture medium, 40 μL of the substrate coelenterazine 400a (final concentration of 5 μM) was added to each well, and then 20 μL of different drugs were added in turn from left to right to ensure that the final concentration of the drugs decreased gradually from bottom to top, and each treatment was repeated twice. Finally, the prepared samples were loaded on machine for test. The machine reading value reflected the intracellular β-arrestin2 on the membrane and the dissociation of G protein trimer. The former indicated the degree of activation of the β-arrestin2 signaling pathway downstream of the dopamine D2 receptors, and the latter indicated the degree of activation of the G protein signaling pathway downstream of the dopamine D2 receptors.

5-HT2A receptor [2] = target: T2, 5-HT2A receptor (Homo sapiens (Human), UniProt P28223); test: Radioligand competition binding, affinity for 5-HT2A receptor ([3H]-ketanserin)
T2 sequence (P28223 whole entry): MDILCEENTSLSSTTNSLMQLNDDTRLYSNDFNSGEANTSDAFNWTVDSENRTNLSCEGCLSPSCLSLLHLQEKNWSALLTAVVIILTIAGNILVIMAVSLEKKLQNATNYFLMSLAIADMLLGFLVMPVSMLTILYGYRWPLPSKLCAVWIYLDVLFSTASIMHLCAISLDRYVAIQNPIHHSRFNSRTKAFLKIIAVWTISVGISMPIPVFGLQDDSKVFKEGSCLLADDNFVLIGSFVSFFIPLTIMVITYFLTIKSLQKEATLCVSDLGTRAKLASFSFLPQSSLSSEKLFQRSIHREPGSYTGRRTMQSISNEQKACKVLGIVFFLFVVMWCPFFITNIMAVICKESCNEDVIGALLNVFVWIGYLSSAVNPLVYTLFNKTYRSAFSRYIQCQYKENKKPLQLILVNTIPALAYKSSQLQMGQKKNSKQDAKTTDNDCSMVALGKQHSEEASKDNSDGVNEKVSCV
Procedure: The affinity of the compounds of the present invention for the 5-HT2A receptors was determined by the method of radioligand competition experiment. In the first step, a cell membrane component containing specific 5-HT2A receptor was prepared. A 10 cm dish was used for transfection with 10 ng of the 5-HT2A receptor and 40 μL of PEI. […] A vacuum pump was used to suck off the culture medium, 3 mL of lysis buffer was added to each well, and the cells were placed in a 4° C. freezer for 10 minutes. After the cells were detached, the cells were transferred to a 15 mL centrifuge tube and centrifuged at 1500 rpm for 5 minutes at 4° C., and the supernatant was discarded. The cell pellet was transferred to a tissue homogenizer, and 3 mL of lysis buffer was added and fully ground until the cells were broken. Then, cell suspension was equally divided into several EP tubes, centrifuged at 4° C. and 12000 rpm for 5 min, and the supernatant was discarded. The precipitate was the cell membrane component containing the 5-HT2A receptor. […] First, a standard binding buffer was added to the cell membrane component containing the 5-HT2A receptor, and the cell membrane was disrupted and resuspended with an electric tissue homogenizer. 30 μL of membrane protein suspension was added to each well of a 96-well plate. Then, 30 μL of different drugs were added to the 96-well plate from left to right to ensure that the final drug concentrations were 10^−5 M, 10^−6 M, 10^−7 M, 10^−8 M, 10^−9 M and 0 M, with two replicates per treatment. Next, 30 μL [^3H]-ketanserin was added to each well of the 96-well plate. The plate was incubated for 2 hours at room temperature in the dark. Detection. The machine reading value reflected the amount of [^3H]-ketanserin bound on the membrane, and after further data processing, the affinity Ki value of different compounds for 5-HT2A receptor was obtained.

dopamine D2 receptors [3] = target: T1, dopamine D2 receptors; test: G protein Gαi1-γ9 dissociation BRET, dopamine D2 receptor functional activity; assay type: cell-based
Procedure: To examine downstream G protein signaling mediated by dopamine D2 receptors, 6 cm dish was used for transfection with 1μg of dopamine D2 receptors, 1μg of Gαi1 fused to seaweed luciferase (Gαi1-Rluc), 1 μg of Gβ3, 1 μg of Gγ9 fused to green fluorescent protein (Gγ9-GFP) and 16 μL of transfection reagent PEI. […] On the third day, the drugs were added for test.
as §1

dopamine D2 receptors [4] = target: T1, dopamine D2 receptors; test: Radioligand competition binding, affinity for dopamine D2 receptors ([3H]-Methylspiperone)
Procedure: A 10 cm diameter dish was used for transfection with 10 ng of the dopamine D2 receptors and 40 μL of PEI. After 48 hours, the 10 cm dish was taken out from the cell culture room and the cultured cells had expressed the dopamine D2 receptors. A vacuum pump was used to suck off the culture medium, 3 mL of lysis buffer (50 mM Tris hydrochloric acid buffer, pH 7.4) was added to each well, and the cells were placed in a 4° C. freezer for 10 minutes. After the cells were detached, the cells were transferred to a 15 mL centrifuge tube and centrifuged at 1500 rpm for 5 minutes at 4° C., and the supernatant was discarded. The cell pellet was transferred to a tissue homogenizer, and 3 mL of lysis buffer was added and fully ground until the cells were broken. Then, cell suspension was equally divided into several EP tubes, centrifuged at 4° C. and 12000 rpm for 5 min, and the supernatant was discarded. The precipitate was the cell membrane component containing the dopamine D2 receptors and stored at −80° C.
First, a standard binding buffer (50 mM HEPES, 50 mM NaCl, 5 mM MgCl2, 0.5 mM EDTA, pH 7.4) was added to the cell membrane component containing the dopamine D2 receptors, and the cell membrane was disrupted and resuspended with an electric tissue homogenizer. 30 μL of membrane protein suspension was added to each well of a 96-well plate. Then, 30 μL of different drugs were added to the 96-well plate from left to right to ensure that the final drug concentrations were 10^−5 M, 10^−6 M, 10^−7 M, 10^−8 M, 10^−9 M and 0 M, with two replicates per treatment. Next, 30 μL [^3H]-N-Methylspiperone was added to each well of the 96-well plate, and the plate was incubated for 2 hours at room temperature in the dark. The unbound isotopes were removed by Whatman GF/C filter membrane and vacuum pump, and the isotopes bound to the receptors were detected by MicroBeta isotope liquid scintillation counter.
The affinity of the compounds of the present invention for the dopamine D2 receptors was determined by the method of radioligand competition experiment. In the first step, a cell membrane component containing specific dopamine D2 receptors was prepared. A10 cm dish was used for transfection with 10 ng of the dopamine D2 receptors and 40 μL of PEI. After 48 hours, the 10 cm dish was taken out from the cell culture room and the cultured cells had expressed the dopamine D2 receptors. A vacuum pump was used to suck off the culture medium, 3 mL of lysis buffer was added to each well, and the cells were placed in a 4° C. freezer for 10 minutes. After the cells were detached, the cells were transferred to a 15 mL centrifuge tube and centrifuged at 1500 rpm for 5 minutes at 4° C., and the supernatant was discarded. The cell pellet was transferred to a tissue homogenizer, and 3 mL of lysis buffer was added and fully ground until the cells were broken. Then, cell suspension was equally divided into several EP tubes, centrifuged at 4° C. and 12000 rpm for 5 min, and the supernatant was discarded. The precipitate was the cell membrane component containing the dopamine D2 receptors. […] First, a standard binding buffer was added to the cell membrane component containing the dopamine D2 receptors, and the cell membrane was disrupted and resuspended with an electric tissue homogenizer. 30 μL of membrane protein suspension was added to each well of a 96-well plate. Then, 30 μL of different drugs were added to the 96-well plate from left to right to ensure that the final drug concentrations were 10^−5 M, 10^−6 M, 10^−7 M, 10^−8 M, 10^−9 M and 0 M, with two replicates per treatment. Next, 30 μL [^3H]-Methylspiperone was added to each well of the 96-well plate. The plate was incubated for 2 hours at room temperature in the dark. Detection. The machine reading value reflected the amount of [^3H]-Methylspiperone bound on the membrane, and after further data processing, the affinity Ki value of different compounds for dopamine D2 receptors was obtained.

C57B6 male mice = test: Freezing behavior test; assay type: in vivo; conditions: 10 mg/kg
Procedure: Experimental method: The experimental animals were C57B6 male mice, n=8 in each group. Mice were first injected with different compounds, and after a certain period of time (30 min or 60 min), the mice were in an upright and unnatural state by placing their forelimbs on a high glass hanging rod (about 5 cm from the ground). Then the time for the mice to maintain this state was measured, and the length of time was used to determine the freezing effect of the drug on the mice.

5-HT2A receptor [5] = target: T2, 5-HT2A receptor; conditions: Blair, Drugs, 2020; cited from earlier work

T1 sequence (P14416 whole entry, the tested form may be a part): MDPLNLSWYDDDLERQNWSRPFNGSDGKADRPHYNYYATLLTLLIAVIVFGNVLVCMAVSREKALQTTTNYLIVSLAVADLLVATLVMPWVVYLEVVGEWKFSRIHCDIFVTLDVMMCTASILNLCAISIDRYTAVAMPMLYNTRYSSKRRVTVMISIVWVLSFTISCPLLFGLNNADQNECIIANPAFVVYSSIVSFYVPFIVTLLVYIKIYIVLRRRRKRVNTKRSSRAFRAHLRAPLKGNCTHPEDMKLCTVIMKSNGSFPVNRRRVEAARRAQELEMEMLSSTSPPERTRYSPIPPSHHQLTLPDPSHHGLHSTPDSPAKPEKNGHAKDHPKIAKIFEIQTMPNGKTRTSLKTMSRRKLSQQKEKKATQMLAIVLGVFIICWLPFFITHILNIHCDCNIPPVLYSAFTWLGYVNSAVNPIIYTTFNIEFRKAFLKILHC

Question: With `CN(C)C(=O)N[C@H]1CC[C@H](CCN2CCN3c4cccc5[nH]cc(c45)CC3C2)CC1` (stereo partly drawn) [Compound I-10, 3-(4-(2-(4,6,6a,7,9,10-hexahydro-8H-pyrazino[1,2-a]pyrrolo[4,3,2-de]quinolin-8-yl)ethyl)trans-cyclohexyl)-1,1-dimethylurea] as the compound, how does the EC50 (dopamine D2 receptors [1]; HEK-293T, I-1 to 19 n=3, I-20 to 27 single determination, read-out: β-arrestin2 BRET EC50) read?
Answer: Its EC50 is 0.00661 µM.

Question: And the Emax (dopamine D2 receptors [1]; read-out: β-arrestin2 BRET Emax % ± SEM)?
Answer: Its Emax is 84%.

Question: What about the “affinity for 5-HT2A receptor (in words)” value (5-HT2A receptor [2]) of the same compound?
Answer: The value was “very weak affinity”.

Question: What about the Ki (5-HT2A receptor [2]; [3H]-ketanserin, HEK-293T membranes) of the same compound?
Answer: The Ki was 2.37 µM.

Question: What about the EC50 (dopamine D2 receptors [3]; HEK-293T, I-1 to 19 n=3, I-20 to 27 single determination, read-out: Gai1 BRET EC50) of the same compound?
Answer: The EC50 was 0.00389 µM.

Question: And the Emax (dopamine D2 receptors [3]; read-out: Gai1 BRET Emax % ± SEM)?
Answer: Its Emax is 80%.

Question: What about the “Affinity pKi ± SEM” value (dopamine D2 receptors [4]) of the same compound?
Answer: Its value is “(7.30 ± 0.08)”.

Question: What about the Ki (dopamine D2 receptors [4]) of the same compound?
Answer: Its Ki is 0.0506 µM.

Question: For `O=C(CCCN1CCC(O)(c2ccc(Cl)cc2)CC1)c1ccc(F)cc1` [Haloperidol, reference compound], which Freezing time (C57B6 male mice; 30 minutes after administration) is on record?
Answer: Its Freezing time is 61.05 ± 3.239 s.

Question: And the Freezing time (C57B6 male mice; 60 minutes after administration)?
Answer: Its Freezing time is 53.19 ± 2.443 s.

Question: Which “affinity for 5-HT2A receptor (in words)” value (5-HT2A receptor [2]) does the source give for `O=c1ccc2ccc(OCCCCN3CCN4c5cccc6[nH]cc(c56)CC4C3)cc2[nH]1` (stereo not drawn) [Compound I-2, 7-(4(4,6,6a,7,9,10-hexahydro-8H-pyrazino[1,2-a]pyrrolo[4,3,2-de]quinolin-8-yl)butoxy)quinolin-2(1H)-one] here?
Answer: The value was “very weak affinity”.

Question: Which “affinity for 5-HT2A receptors relative to that for D2 receptors” value (5-HT2A receptor [5]) does the source give for `CN1CCN2c3c(cccc31)[C@@H]1CN(CCCC(=O)c3ccc(F)cc3)CC[C@@H]12` [Lumateperone] here?
Answer: The value was “about 60 times”.

— patent US20240124456A1, “AZA-ERGOLINE DERIVATIVE AND PREPARATION METHOD THEREFOR AND APPLICATION THEREOF” (SHANGHAITECH UNIVERSITY, priority 2021, published 2024)
